Assay results from article PMC10121968, “Fosgonimeton, a Novel Positive Modulator of the HGF/MET System, Promotes Neurotrophic and Procognitive Effects in Models of Dementia” (Neurotherapeutics, 2022).
Non-standard residues stand in square brackets, D forms with d. Residues, ends and D or L forms follow the SMILES beside them. *: point of attachment. Hexanoyl = CCCCCC(=O)*; Ahx = NCCCCCC(=O)O

Experiments:
[1] = test system: primary rat hippocampal neurons; assay: Neurite outgrowth assay (beta-III tubulin staining); type: cell-based; conditions: 4 days, vs vehicle
Procedure: On day 0, rat hippocampal neurons from newborn pups were isolated and cultured in brain neuronal culture medium (neurobasal medium supplemented with 5% FBS, 2% B-27 supplement, and 0.003% gentamycin) at 37 °C under 5% CO2. At 1 day in vitro (DIV1), cells were transferred to a poly-D-lysine–coated 24-well plate at approximately 10,000 cells/well. Cells were then grown in […] of serum-free medium and treated with the following: 0.1% dimethyl sulfoxide (DMSO; vehicle), 10 nM dihydrotestosterone (positive control), 10 nM fosgo-AM, 1 nM fosgo-AM, 5 ng/ml HGF, or 5 ng/ml HGF + 1 nM fosgo-AM. All treatments contained a final concentration of 0.1% DMSO. For the neurite outgrowth assay, treatment media were refreshed on DIV3, and cells were processed for analysis on DIV4. For the synaptogenesis assay, treatment media were refreshed on DIV3 and DIV6, and cells were processed for analysis on DIV8. Processing for both the neurite outgrowth and the synaptogenesis assays was performed as follows: media were removed, and cells were fixed with 100% methanol for 20 min at RT before methanol was aspirated and each well was washed twice with Dulbecco’s phosphate-buffered saline (DPBS). Cells were permeabilized using 0.02% […] (ThermoFisher, Waltham, Massachusetts) in DPBS for 2 min at RT without shaking, and plates were blocked with 5% bovine serum albumin (BSA) in DPBS for 1 h at RT. Plates were then incubated overnight at 4 °C with gentle shaking with use of beta-III tubulin antibody (ab201740; Abcam, Boston, Massachusetts) to assess neurite outgrowth or with use of 1:500 rabbit anti–synaptobrevin-II antibody (Synaptic Systems, cat# 104 202, Göttingen, Germany) to assess synaptogenesis. After overnight incubation, plates were washed 3 times with DPBS and incubated for 1 h at RT with use of anti–rabbit immunoglobulin G–secondary antibody conjugated to Alexa Fluor 488 (Life Technologies, Carlsbad, California, 1:500). After 5 DPBS washes, coverslips were mounted on slides using fluorescent mounting medium (Golden Bridge International Labs, Bothell, Washington, cat# E19-s). Imaging was performed using the BX43 Olympus microscope driven by the standard “CellSens” software by Olympus. […] Ten images of single cells from a total of 2 assays were analyzed using NeuroJ plug-in for ImageJ to assess neurite outgrowth, as neurite length and the number of branches per neuron were counted for each cell. For the synaptogenesis assay, synaptic count (number of synapses) and synaptic strength (relative abundance of presynaptic vesicles per synapse as measured by synaptobrevin-II fluorescence intensity) were quantified for each cell. Data were assessed for normality (Shapiro–Wilk) and homoscedasticity (Brown-Forsythe). […]

IL-6 = IL-6 release in LPS-challenged THP-1 macrophages (HTRF); type: cell-based, human; conditions: 1 µM, 20 min pretreatment, LPS 50 ng/mL 24 h, vs LPS + vehicle
Procedure: To determine the effect of fosgo-AM on LPS-induced cytokine release, we sought to determine the levels of interleukin-1β (IL-1β), interleukin-6 (IL-6), and tumor necrosis factor-α (TNF-α) in LPS-challenged THP-1–differentiated macrophages in the presence and absence of fosgo-AM. THP-1 monocytes were grown at 37 °C, 5% CO2 in Roswell Park Memorial Institute (RPMI) medium + 10% FBS until approximately 80% confluent. Cells were seeded in polystyrene-treated 96-well cell culture plates at approximately 50,000 cells/well in 100-µL complete media. 100 µL Phorbol myristate acetate was then added to each well for a final concentration of 100 ng/mL. The plate was then incubated for 3 days at 37 °C, 5% CO2 to prime the monocytes into macrophages. […] For cytokine quantification, cell culture supernatant was assayed by HTRF kits to assess levels of IL-1β (Human IL-1β kit, #62HIL1BPEG, Cisbio, Codolet, France) and IL-6 (Human IL-6 kit, 62HIL06PET, Cisbio, Codolet, France), and by ELISA (Human TNF-α ELISA kit, KHC3011, ThermoFisher, Waltham, Massachusetts) to determine the levels of TNF-α. […] Fluorescence emission at 2 different wavelengths (665 nm and 620 nm) were measured on an Envision plate reader (PerkinElmer, Waltham, Massachusetts), and HTRF ratio of the acceptor and donor emission signals for each well was calculated as follows: HTRF ratio = (665 nm/620 nm) × 10,000. […]

Structure (SMILES): CCCCCC(=O)N[C@@H](Cc1ccc(O)cc1)C(=O)N[C@H](C(=O)NCCCCCC(N)=O)[C@@H](C)CC [fosgo-AM] (Hexanoyl-Tyr-Ile-[Ahx]-NH2)
- neurite length per cell ([1]; 1 nM fosgo-AM + 5 ng/mL HGF): significantly increased neurite length per cell
- neurite length per cell ([1]; 10 nM): significant increase in neurite length per cell
- number of neurite branches ([1]; HGF ± fosgo-AM): did not reach statistical significance
- IL-6 release (IL-6): significant decrease
